From US20250241890A1, “1,4-DIUREAS AND 1,4-DITHIOUREAS AND USES THEREOF” (Purdue Research Foundation, priority 2024, published 2025)

Target: T1, α-synuclein (α-syn) (Homo sapiens, UniProt P37840)
T1 construct: purchased rPeptide (Watkinsville, GA)
Test: Thioflavin T (ThT) fluorescence assay of α-syn fibril formation
Assay type: biochemical
Conditions: for remaining activity at 100 µM: α-syn 2 μM final concentration, compounds at 100 μM, average of three replicates with SEM, read-out: % ThT intensity (100 μM), maximum ThT intensity in percentage
Protocol: Chemical and peptide source. Dimethylsulfoxide (DMSO) and thioflavin-T (ThT) were purchased from Alfa Aesar (Ward Hill, MA). Recombinant α-synuclein (α-syn) was procured from rPeptide (WatKinsville, GA). The recombinant p-tau isoform 1N4R was prepared as published previously (Fortin et al. 2021, Sui et al. 2015, Liu et al. 2020). Concerning the preparation of tau 0N4R, a bacterial expression plasmid consisting of the vector pET30a carrying a cDNA encoding the human Tau 0N4R isoform was a kind gift of Dr. Benjamin Wolozin (Boston University). E. coli stock (Rosetta BL21 E. coli (CamR) containing pET30a [0N4R tau wt] (KanR)) was grown in LB medium supplemented with kanamycin (50 μg/mL) and chloramphenicol (50 μg/mL). Protein over-expression was induced by the addition of 1 mM IPTG for ˜18 hours at 37° C., and cells were pelleted by centrifugation at 6,000 g for 15 minutes at 4° C. The cells were resuspended in lysis buffer (10 mM Hepes, pH 7.4, 50 mM NaCl, 1 mM MgCl2, 1 mM PMSF, 1× PIC, and 0.5 mM DTT) and lysed by sonication at 30 seconds “On” and 1 minute “Off” at ˜30-45% power for ˜3-5 minutes. Lysate was centrifuged at 10,000 rpm for 10 minutes at 4° C., and supernatant was transferred with 7.8 ml (total) of 3M NaCl. The lysate was incubated for 10 minutes in 80° C. water bath, then cooled for 10 minutes in an ice bath. The lysate was centrifuged at 10,000 rpm at 4° C. for 10 minutes, and the supernatant was transferred to a new tube. The supernatant was dialyzed overnight against cation exchange buffer (50 mM MES, […], 1 mM DTT, pH 6.0). The dialysate was loaded onto a HiPrep SP HP column, and proteins were eluted with a linear gradient ranging from 50 mM to 1 M NaCl. General Characterizations. ^1H and ^13C {1H} NMR spectra were recorded using a 500 MHz Bruker instrument working at a frequency of 500 MHz for ^1H and at 126 MHz for ^13C. Chemical shifts are reported in ppm using residual solvent resonances as internal reference (δ 2.50 and δ 39.51 for ^1H and ^13C in DMSO-d6, respectively). ^1H NMR data are reported as follows. b=broad, s=singlet, d=doublet, t=triplet, q=quartet, and m=multiplet. Coupling constants are given in hertz. The purity of all compounds and synthetic intermediates was judged to be 95% or better based on ^1H NMR. IR measurements were performed in a Nicolet FTIR as thin films in the Purdue Drug Discovery facility. High-resolution mass spectrometry analyses were conducted at the MSU Mass Spectrometry facility. Thioflavin fluorescence assays. […] The recombinant α-syn obtained from rPeptide has been validated with proper quality control to confirm the monomeric state of the protein. Kinetics of fibril formation have been performed using ThT as published previously.^6, 12, 13, 24 The fluorescence emission experiments were performed with the excitation and emission wavelengths set at 440 and 485 nm, respectively, with a Synergy HT multi-mode microplate reader (BioTek, Winooski, VT). Samples were measured in three replicates. Experiments were repeated three times using different α-syn stock solutions. For each time point, arbitrary units of fluorescence were calculated from the mean values normalized against the maximum value. The percentage of fluorescence intensity at the plateau phase in Table 1 was expressed as mean #SEM. Concerning the dose response curve depicted in FIG. 2, the data were plotted using GraphPad Prism. Photo-induced Cross-linking of Unmodified Proteins (PICUP) Assay. To induce oligomerization by cross-linking, α-syn (from Rpeptide, LLC) was diluted in 10 mM phosphate buffer (pH 7.4) to reach a final concentration of 50 μM. Different compounds were added to the protein solution at a final concentration of 50 μM, resulting in a molar ratio of 1:1. PICUP assays were performed with the following controls: samples without light exposition, without Ru(bpy) or ammonium persulfate, and without compound (i.e., 0.125% DMSO). […]

EC50 (Log (agonist) vs. normalized response (variable slope), Prism, α-syn 6 μM, 47 hours, 12.5, 25, 50 and 100 μM, read-out: Log EC50 (dose response curve of α-syn fibrillation, ThT) (converted)) [µM]	remaining activity at 100 µM [%]	dose-dependent reduction of α-syn fibrillation (ThT) (α-syn 6 μM, 47 hours, 12.5, 25, 50 and 100 μM)	Structure (SMILES)
15.9 ± 2.8	5.3	–	O=C(Nc1ccc(NC(=O)Nc2cccc3[nH]ccc23)cc1)Nc1cccc2[nH]ccc12 [Compound 1, 3-(1H-indol-4-yl)-1-(4-{[(1H-indol-4-yl)carbamoyl]amino}phenyl)urea]
–	41.6	–	S=C(Nc1ccc(NC(=S)Nc2cccc3cc[nH]c23)cc1)Nc1cccc2cc[nH]c12 [Compound 8, 3-(1H-indol-7-yl)-1-(4-{[(1H-indol-7-yl)carbamothioyl]amino}phenyl)thiourea]
–	15.2	dose-dependent reduction	S=C(Nc1ccc(NC(=S)Nc2cccc3[nH]ccc23)cc1)Nc1cccc2[nH]ccc12 [Compound 2, 3-(1H-indol-4-yl)-1-(4-{[(1H-indol-4-yl)carbamothioyl]amino}phenyl)thiourea]
